Reference: publication PMC8269107, “Lipidation of Temporin-1CEb Derivatives as a Tool for Activity Improvement, Pros and Cons of the Approach” (International Journal of Molecular Sciences, 2021)
Converted amounts (≈) assume the structure as drawn. Where a SMILES comes first, the peptide text is derived from it. [ ]: non-standard residue; d: D form. AEEA = NCCOCCOCC(=O)O; Ahx = NCCCCCC(=O)O; βAla = NCCC(=O)O

Key:
[1] = system: C.albicans CCM 8186; experiment: MIC, broth microdilution; format: cell-based, Candida albicans; conditions: C.albicans CCM 8186, 24 h
Source text: (§1) Escherichia coli (PCM 2057 = ATCC 25922), Staphylococcus aureus (PCM 2054 = ATCC 25923), Staphylococcus epidermidis (PCM 2118 = ATCC 14990), Bacillus subtilis (PCM 2224 = ATCC 9799), Bacillus cereus (PCM 482 = ATCC 10702) and Pseudomonas aeruginosa (PCM 499 = ATCC 10145) were obtained from the Polish Collection of Microorganisms. Fungi strains Candida albicans (CCM 8186 = CNTC 49/64), Candida glabrata (CCM 8270 = ATCC 90030), Candida parapsilosis (CCM 8260 = ATCC 22019) and Candida krusei (CCM 8271 = ATCC 6258) were acquired from the Czech Collection of Microorganisms. S. aureus USA300 (wild type strain), the reference strain of Klebsiella pneumoniae (ATCC 13883) and clinical isolates of Pseudomonas aeruginosa (PA1, PA2) collected from nonrelated patients admitted to the Stefan Zeromski Specialist Municipal Hospital in Krakow (Poland) were kindly provided by the research group of the Department of Microbiology, Faculty of Biochemistry, Biophysics and Biotechnology, Jagiellonian University, Krakow, Poland.
(§2) Luria-Bertani broth (LB) and Sabouraud Dextrose broth (SB) (Biocorp, Poland) were used for cultivation of bacteria and fungi strains, respectively. The antimicrobial activity of the peptides were analyzed through determination of MIC (minimal inhibitory concentration) parameters according to Clinical and Laboratory Standards (CLSI) guidelines developed for aerobic bacteria and yeasts, respectively. Mueller-Hinton broth (MHB) was used as the working medium for all bacterial strains, while in the case of fungi, RPMI-1640 (with L-glutamine, without sodium bicarbonate) growth medium buffered with MOPS (morpholinepropanesulfonic acid) and supplemented with 2% glucose was used. Inoculum was prepared from freshly grown cultures of microorganisms at their exponential phase of growth. […] Plates were then incubated for 24 h at 37 °C in the case of bacteria and at 35 °C in the case of fungi. After that time, absorbance was read at 590 nm with a Perkin Elmer plate reader. Cultures without peptide were treated as positive control, while uninoculated media were defined as negative control. All measurements were run at least in triplicate.

[2] = system: C.parapsilosis CCM 8260; experiment: MIC, broth microdilution; format: cell-based, Candida parapsilosis; conditions: C.parapsilosis CCM 8260, 24 h
Source text: as §1, §2

[3] = system: C.glabrata CCM 8270; experiment: MIC, broth microdilution; format: cell-based, Candida glabrata; conditions: C.glabrata CCM 8270, 24 h
Source text: as §1, §2

[4] = system: B. cereus PCM 482; experiment: MIC, broth microdilution; format: cell-based, Bacillus cereus; conditions: B. cereus PCM 482, 24 h
Source text: as §1, §2

[5] = system: S. epidermidis PCM 2118; experiment: MIC, broth microdilution; format: cell-based, Staphylococcus epidermidis; conditions: S. epidermidis PCM 2118, 24 h
Source text: as §1, §2

[6] = system: C. albicans (CCM 8186) biofilm; experiment: Biofilm inhibition assay (MTT); format: cell-based, Candida albicans; conditions: C. albicans biofilm development, 24 h post-inoculation
Experimental: In the case of bacteria, an overnight culture of S. aureus in Tryptic Soy Broth (TSB) supplemented with 2% glucose (TSB/+G) was used to prepare inoculum for the experiments. Briefly, 5 mL of 24 h culture was centrifuged at 5000× g, washed with sterile PBS and suspended in a fresh 2 × concentrated TSB/+G. In the case of yeasts, the overnight culture of C. albicans in Sabouraud dextrose broth (SB) was used for inoculum preparation. Similar to above, 5 mL of 24 h culture was centrifuged, washed with PBS and then suspended in sterile 2 × concentrated RPMI-1640 medium (with L-glutamine, without sodium bicarbonate) supplemented with 2% glucose (RPMI-1640/+G). In both cases, the cell concentration of the inoculum was about 1 × 10^7 cells per ml.
For the determination of the inhibitory concentration that reduced biofilm development by 50% (BIC50^, expressed in µg/mL), 100 µL inoculum in 2 × concentrated RPMI-1640/+G medium (in the case of C. albicans) or 2 x concentrated TSB/+G broth (in the case of S. aureus) was transferred to each well of 96-well plates containing 100 µL of serially diluted in water tested compounds. The final concentrations of the compounds were the same as those used in MIC determination studies. The 96-well plates were then incubated for 24 h at 37 °C and 35 °C in the case of bacteria and fungi, respectively. Viability of the microorganisms in the presence of the tested compounds was analyzed by means of MTT assay.
(§3) The reduction in biofilm viability was analyzed by means of MTT assay. Briefly, 20 μL of MTT solution (5 mg/mL in PBS) was added to prewashed wells with exchanged medium (180 μL of fresh medium) wells containing bacterial/yeast biofilms. Plates were then incubated in the dark for the next 3 h at 37 °C. After that time, the medium was replaced with 6 mM HCl in isopropanol and, when the reduced MTT was fully dissolved, the plates were read at 570 nm. Activity against fully developed 24 h old biofilm was described as biofilm eradication concentration (BEC50 expressed in µg/mL), which corresponded to the concentration of the compound able to reduce 50% of biofilm viability compared with the growth control.

[7] = system: S. aureus (PCM 2054) biofilm; experiment: Biofilm eradication assay, pre-formed 24 h old biofilm (MTT); format: cell-based, Staphylococcus aureus; conditions: S. aureus pre-formed 24 h old biofilm, 24 h treatment
Experimental: Biofilm eradication activity of the synthesized compounds was analyzed against 24 h old biofilms of S. aureus and C. albicans. In the case of bacteria, an overnight culture of S. aureus in Tryptic Soy Broth (TSB) supplemented with 2% glucose (TSB/+G) was used to prepare inoculum for the experiments. Briefly, 5 mL of 24 h culture was centrifuged at 5000× g, washed with sterile PBS and suspended in a fresh TSB/+G. The bacterial suspension was then diluted in a fresh growth medium to obtain the final concentration of colonies of about 1 × 10^7 cells per ml. Further, 200 μL of the inoculum was transferred to each well of 96-well sterile polystyrene flat-bottomed plate, and bacteria were then incubated for the next 24 h without shaking at 37 °C.
(§4) After that, each well of the plates containing bacterial or fungi biofilm was washed three times with PBS in order to remove all non-adherent cells. Then, peptide solutions of 200 µL ranging from 50 to 0,39 µg/mL prepared in TSB +/G in the case of experiments on S. aureus biofilm, and (RPMI-1640/+G) in the case of C. alibcans, were prepared and transferred into the microtiter plates. After the addition of the peptides, the experiments were continued for the next 24 h.
as §3

[8] = system: C. albicans (CCM 8186) biofilm; experiment: as above; format: cell-based, Candida albicans; conditions: C. albicans pre-formed 24 h old biofilm, 24 h treatment
Experimental: In the case of yeasts, the overnight culture of C. albicans in Sabouraud dextrose broth (SB) was used for inoculum preparation. Similar to above, 5 mL of 24 h culture was centrifuged, washed with PBS and then suspended in sterile RPMI-1640 medium (with L-glutamine, without sodium bicarbonate) supplemented with 2% glucose (RPMI-1640/+G) yielding the amount of about 1 × 10^7 cells per ml. Subsequently, 200 µL of yeast suspension was transferred into each well of a microtiter plate, and it was incubated stationary for the next 24 h at 35 °C.
as §4, §3

Row | SMILES | MIC100 [1] [µg/mL] | MIC100 [2] [µg/mL] | MIC100 [3] [µg/mL] | MIC100 [4] [µg/mL] | MIC100 [5] [µg/mL] | BIC50 [6] [µg/mL] | BEC50 [7] [µg/mL] | BEC50 [8] [µg/mL]
1 | CC[C@H](C)[C@H](NC(=O)COCCOCCNC(=O)[C@H](Cc1c[nH]cn1)NC(=O)CCN)C(=O)N[C@@H](CCCCN)C(=O)N[C@@H](CCCCN)C(=O)N[C@H](C(=O)N[C@@H](CC(C)C)C(=O)N[C@@H](CO)C(=O)N[C@@H](CCCCN)C(=O)N[C@H](C(=O)N[C@@H](CCCCN)C(=O)N[C@@H](CCCCN)C(=O)N[C@@H](CC(C)C)C(=O)N[C@@H](CC(C)C)C(N)=O)[C@@H](C)CC)[C@@H](C)CC [CAR-PEG-DK5] (H-[βAla]H[AEEA]IKKILSKIKKLL-NH2; N-terminus and C-terminus assumed) | 15.6 (≈ 8.78 µM) | 31.3 (≈ 17.6 µM) | 62.5 (≈ 35.2 µM) | >50 | 3.9 (≈ 2.19 µM) | 50 | >50 | >50
2 | CC[C@H](C)[C@H](NC(=O)CCCCCN)C(=O)N[C@@H](CCCCN)C(=O)N[C@@H](CCCCN)C(=O)N[C@H](C(=O)N[C@@H](CC(C)C)C(=O)N[C@@H](CO)C(=O)N[C@@H](CCCCN)C(=O)N[C@H](C(=O)N[C@@H](CCCCN)C(=O)N[C@@H](CCCCN)C(=O)N[C@@H](CC(C)C)C(=O)N[C@@H](CC(C)C)C(N)=O)[C@@H](C)CC)[C@@H](C)CC [AHX-DK5] (H-[Ahx]IKKILSKIKKLL-NH2) | 12.5 (≈ 8.13 µM) | 12.5 (≈ 8.13 µM) | 12.5 (≈ 8.13 µM) | 50 (≈ 32.5 µM) | 0.78 (≈ 0.507 µM) | 25 | 25 | 25
